These results are taken from US11197885B2, “Collagen enhancing agent made from low acyl gellan gum, methods of making and methods of using the same” (The University of Toledo, priority 2015, dated 2021).

Assay [1] deals with mouse cortical neurons (E17, DIV5). Description: LIVE/DEAD assay, pre-treatment of mouse cortical neurons before 4HNE, H2O2 or Aβ42. In kind it is cell-based. The following applies: pre-treatment 24 h (same concentrations). An excerpt:
The protective effect of polysaccharides on primary cortical neurons from 4HNE, H2O2, and Aβ42 peptide (Sigma) was examined using LIVE/DEAD® Viability/Cytotoxicity Assay Kit (Life Technologies). Female pregnant mice (BALB/C, E17, Charles River Laboratories International, Inc.) or female pregnant SD rats (E17, bred in house) were anesthetized and dissected to obtain 8-9 embryos per animal. Cortical neurons were isolated from embryonic brains and differentiated on poly-L-lysine-coated coverslips in B27/neurobasal medium. For drug treatment before free radical treatment, mouse cortical neurons (5 days in vitro [DIV5]) were treated with vehicle (H2O), 1 μM of 5 kD dextran (Sigma), alginate (Sigma), midi-GAGR, 0.01 μM of high acyl gellan gum (HA-GAGR, CPKelco Co.), or 0.1 μM of LA-GAGR for 24 h and then treated with 10 μM 4HNE or 50 μM H2O2 for 24 h, or 2 μM Aβ42 peptide for 48 h prior to viability/cytotoxicity assay. For drug co-treatment with free radicals, rat cortical neurons (DIV5) were treated with 1 μM of dextran, alginate, or midi-GAGR, 0.01 μM of HA-GAGR, or 0.1 μM of LA-GAGR along with either 10 μM 4HNE (24 h) or 2 μM Aβ42 peptide (48 h). To examine the extent to which midi-GAGR-mediated neuroprotection depends on FGFR1, rat cortical neurons (E17, DIV5) were pre-treated with 4 μM SU5402 (Sigma) for 6 h and treated with 10 μM 4HNE and either vehicle or 1 μM midi-GAGR for 24 h prior to cell viability/cytotoxicity assay. As controls, neurons were treated with SU5402, midi-GAGR, 4HNE, 4HNE plus midi-GAGR, or SU5402 plus midi-GAGR.
For cell viability/cytotoxicity measurement, neurons on glass coverslips were incubated in 1×PBS containing 2 μM calcein AM (live cells: green) and 4 μM ethidium homodimer-1 (dead cells: red) for 10 min at 37° C. Immediately thereafter, neurons were imaged by 10×objective using a fluorescence Olympus IX71 microscope (Olympus America Inc., Center Valley, Pa.) and, for the acquisition of high-quality images, using TCS SP5 multi-photon laser scanning confocal microscope.
Midi-GAGR attenuated neurite atrophy caused by free reactive radicals. It is now shown herein that midi-GAGR protect neurons from the death caused by free radical insults. The extent to which midi-GAGR protects the primary culture of rodent cortical neurons from 4HNE and H2O2 was determined. In addition to the radicals, amyloid β peptide (Aβ42) was also tested. Aβ42 peptide is a major causative factor that causes oxidative stress and neuron death. Mouse cortical neurons (E17, DIV5) were treated with 10 μM 4HNE (24 h), 50 μM H2O2 (24 h), or 2 μM Aβ42 peptide (48 h) after the treatment of the neurons with vehicle (H2O), midi-GAGR (1 μM), dextran (1 μM), alginate (1 μM), LA-GAGR (0.1 μM), or HA-GAGR (0.01 μM) for 24 h. The concentrations of 4HNE, H2O2, and Aβ42 peptide were chosen according to their patho-physiological concentrations. The concentrations of LA-GAGR and HA-GAGR were chosen because, within the same volume, the total numbers of sugar units in the polysaccharides at the concentrations are close to that of 1 μM midi-GAGR. The viability of neurons was assessed using LIVE/DEAD® Viability/Cytotoxicity Assay Kit in which membrane-permeant calcein AM is cleaved by esterase in live cells, thus yielding green fluorescence, and membrane-impermeant ethidium homodimer-1 stains the nucleic acids of plasma membrane-compromised cells with red fluorescence. The numbers of green (live) and red (dead) neurons in each condition were counted using Metamorph. Although the intensities of green fluorescent signals in neurons treated with either free radicals or Aβ42 peptide were weak, the neurons were included in the counting. About 8-9% of vehicle-treated neurons died during the process of live/dead cell assay (FIGS. 23A-23F, FIGS. 24A-24C).

Assay [2] has as its system differentiated dopaminergic PC12 cells exposed to 30 μM 6-OHDA. Description: LIVE/DEAD viability of differentiated PC12 cells exposed to 6-OHDA. In kind it is cell-based. The following applies: 1 μM for 6 h, then 30 μM 6-OHDA for 24 h. The method, then:
Differentiated dopaminergic PC12 cells and primary mouse embryonic cortical neurons (E17, DIV14) were treated with mock (H2O) or 1 μM of dextran, alginate, HA-GAGR, or midi-GAGR for 6 h and insulated by oxidative stressors (30 μM 6-OHDA [PC12] and 10 μM amyloid β peptide [cortical neurons]) for 24 h.

In the case of dextran, the “percent of neuron death” value in assay [1] (then 2 μM Aβ42 peptide 48 h) is “did not decrease”; in assay [1] (then 50 μM H2O2 24 h) it was “did not reduce”. Besides, the 6-OHDA-induced cell death entry in assay [2] was “did not”.
